“And” between values parts separate entries of the source, which are not always exact repeats. Identical values can stand only once.
How the values were obtained:
Format in all cases: cell-based, human
[1] = test system: DCs; experiment: IL-12 production by peptide-pulsed DCs in the presence of T cells
Method: It has been previously shown that the activation of T cells by peptidepulsed DCs is related to the level of IL-12 production by the DCs. Studies were therefore conducted to determine the levels of IL-12 production by DCs pulsed with PSA-3 and PSA-3A peptides in the presence of T cells. […] When DCs pulsed with the PSA3A peptide were incubated with both T cell lines, the DCs incubated with the T-PSA-3A line again produced higher levels of IL-12 than those peptide-pulsed DCs incubated with the T cell line T-PSA-3 (Table 3).

[2] = test system: C1R-A2 cells; experiment: 111In release cytotoxic assay, peptide-pulsed targets
[3] = test system: T-PSA-3A cells; experiment: IFN-γ production by T cell line stimulated with peptide-pulsed DCs (ELISA); conditions: peptide 25 μg/ml
Method: (§1) Detection of Cytokines. Supernatant of T cells exposed for 24 h to peptide-pulsed infected DC, rV-PSA infected DC, or rV-PSA-3A infected DC, in IL-2-free medium at various responder: stimulator ratios, were screened for secretion of IFN-γ using an ELISA kit (R & D Systems, Minneapolis, Minn.). The results were calculated as pg/ml. A Cytometric Bead Array (CBA) system (BD PharMingen, San Diego, Calif.) was also used to determine the secretion of multiple cytokines by specific T cell lines. The CBA system uses the fluorescence detection by flow cytometry to measure soluble analytes in a particle-based immunoassay. The BD human Th1/Th2 cytokine CBA Kit was employed to measure IL-2, IL-4, IL-5, IL-10, TNF-α, and IFN-γ protein levels in a single sample. The cytokine capture beads were mixed with PE-conjugated detection antibodies and then incubated with recombinant cytokine standards or test samples to form sandwich complexes. The samples results were generated in graphical and tabular format using BD CBA analysis software. The results were calculated as pg/ml.
Table 2: Production of IFN-γ by a T cell line stimulated with PSA-3 or agonist PSA-3A peptides. The PSA-specific T cell line T-PSA-3A was used as effector cells at IVS-3. T-PSA-3A cells were stimulated with irradiated HLA-A2 positive allogeneic DCs either pulsed with PSA-3 or PSA-3A peptide at a concentration of 25 μg/ml and an effector-to-APC ratio of 10:1. After 24-h culture supernatants were collected and screened for the secretion of IFN-γ. APC=antigen […].

[4] = test system: T-PSA-3 cells; experiment: Cytometric Bead Array cytokine production by peptide-stimulated T cells
Method: as §1
The cytokine profile of T cells stimulated with APCs pulsed with either the PSA-3 or the PSA-3A peptide was then analyzed. The T cell line derived using the PSA-3 peptide was used in these studies, and the APCs used were autologous B cells. A Cytometric Bead Array (CBA) assay was used for analysis (see Examples section) using supernatant fluids obtained 24 h after stimulation. FIGS. 6A–6C illustrate […] of the 10 internal standards used for the calibration of the results obtained in this assay. FIGS. 6D–6F show the levels of each of six cytokines produced by T cells stimulated with APCs pulsed with no peptide, PSA-3A peptide, and PSA-3 peptide, respectively. […] The results obtained for IL-5 will be discussed below (Conclusions section).

[5] = test system: T-PSA-3 cells
[6] = T-PSA-3 + peptide-pulsed autologous B cells, 24 h supernatant

VLSNDVCAQV (SEQ ID NO:3) [PSA-3A]
IL-12 PRODUCTION ([1]; APC DC, T cell line T-PSA-3, peptide 25 μg/ml, 10:1, 24 h, IVS-4): 6.0 pg/ml/5 × 10^5 DC | IL-12 PRODUCTION ([1]; APC DC, T cell line T-PSA-3A, peptide 25 μg/ml, 10:1, 24 h, IVS-4): 27.5 pg/ml/5 × 10^5 DC | IL-12 PRODUCTION ([1]; no APC, T cell line T-PSA-3, peptide 25 μg/ml, 24 h): <0.6 pg/ml/5 × 10^5 DC | IL-12 PRODUCTION ([1]; no APC, T cell line T-PSA-3A, peptide 25 μg/ml, 24 h): <0.6 pg/ml/5 × 10^5 DC | Fold less peptide than PSA-3 peptide necessary for lysis ([2]; T-PSA-3A line, C1R-A2 targets, E:T 25:1, FIG. 4A): approximately 8 fold | Fold less peptide required to achieve similar levels of lysis ([2]; T-PSA-3 line, C1R-A2 targets, E:T 25:1): approximately 8 fold | Lysis of peptide-pulsed C1R-A2 cells by T-PSA-3A line ([2]; peptide 25 μg/ml, IVS-3, two E:T ratios, FIG. 3A): to a greater extent than cells pulsed with the PSA-3 peptide | Lysis of peptide-pulsed C1R-A2 cells by T-PSA-3 line ([2]; peptide 25 μg/ml, IVS-3, two E:T ratios, FIG. 3B): to a greater extent than those pulsed with the PSA-3A peptide | PRODUCTION OF IFN-γ ([3]; APC DCs, T-PSA-3A T cells present, effector-to-APC 10:1, 24 h, IVS-3): 566 pg/mL | PRODUCTION OF IFN-γ ([3]; APC DCs, no T cell, 24 h): <15 pg/mL | PRODUCTION OF IFN-γ ([3]; no APC, T-PSA-3A T cells present, 24 h): <15 pg/mL | Production of IL-5 ([4]; T cells stimulated with PSA-3A as compared to PSA-3 peptide): increase | Production of IFN-γ [4, 6]: greater production | Production of IL-2 [4, 6]: greater production | Production of IL-4 [4, 6]: Low or undetectable levels | Production of IL-10 [4, 6]: Low or undetectable levels | Production of TNF-α [4, 6]: No TNF-α could be detected | Production of IFN-γ by None (no T cells) [5]: <13.0 pg/mL | Production of IFN-γ by T-PSA-3 [5]: 946.6 pg/mL and 915.9 pg/mL

— patent US7247615B2, “Peptide agonists of prostate-specific antigen and uses therefor” (priority 2001, dated 2007)
